The results in this text go back to DBAASP.

Holding throughout (assay): ≥ marks a high value that may be exact or a test limit, other limits are often not marked, values filed in µg/mL are converted to µM
The subject of assay [1] is Escherichia coli JW0013.
The test system of assay [2] is Salmonella enterica subsp. enterica serovar Typhimurium ATCC 14028.
Assay [3] deals with Escherichia coli DH5alpha.
The test system of assay [4] is Klebsiella pneumoniae ATCC 10031.
For assay [5], the system named is Bacillus subtilis ATCC 23857.
Assay [6] deals with Escherichia coli ATCC 25922.
For assay [7], the system named is Salmonella typhimurium.
Assay [8] has as its system Staphylococcus epidermidis.
In assay [9] the test system is Shigella dysenteriae.
Assay [10] relates to Pseudomonas aeruginosa.
Assay [11] relates to Staphylococcus aureus.
Assay [12] has as its system Micrococcus luteus.
For assay [13], the system named is Proteus mirabilis.
The test system of assay [14] is Escherichia coli.
For assay [15], the system named is Bacillus subtilis.
Assay [16] relates to Klebsiella pneumoniae.
Assay [17] concerns Pseudomonas aeruginosa ATCC 27853.
In assay [18] the test system is Staphylococcus aureus ATCC 25923.
In assay [19] the test system is Bacillus subtilis ATCC 6051.
The subject of assay [20] is Klebsiella pneumoniae ATCC 700603.

Structures are written as SMILES. ≈ marks a conversion by molar mass, not a printed value.

On to `CC[C@H](C)[C@H](NC(=O)[C@H](CCCN=C(N)N)NC(=O)[C@H](CCCN=C(N)N)NC(=O)[C@@H]1CCCN1C(=O)[C@@H]1CCCN1C(=O)[C@H](CCCN=C(N)N)NC(=O)[C@H](CCCCN)NC(=O)[C@H](CCCN=C(N)N)NC(=O)[C@@H]1CCCN1C(=O)[C@H](CCCCN)NC(=O)[C@H](Cc1ccc(O)cc1)NC(=O)[C@@H]1CCCN1C(=O)[C@H](CCCCN)NC(=O)[C@H](CCCCN)NC(=O)[C@H](CC(=O)O)NC(=O)[C@@H](N)C(C)C)C(=O)N[C@@H](Cc1ccc(O)cc1)C(=O)N[C@@H](CC(N)=O)C(=O)N[C@@H](CCCN=C(N)N)C(N)=O` [VDKKPYKPRKRPPRRIYNR], for which the MIC (as a rule, the smallest concentration in the dilution series that meets the test's criterion for growth inhibition) in assay [1] came out at 0.973 µM (≈ 2.4 µg/mL).
The same measure, in the same setting: the value for `CC[C@H](C)[C@H](NC(=O)[C@H](CCCN=C(N)N)NC(=O)[C@H](CCCN=C(N)N)NC(=O)[C@@H]1CCCN1C(=O)[C@@H]1CCCN1C(=O)[C@H](CCCN=C(N)N)NC(=O)[C@@H]1CCCN1C(=O)[C@H](CCCN=C(N)N)NC(=O)[C@@H]1CCCN1C(=O)[C@H](CC(C)C)NC(=O)[C@H](Cc1c[nH]c2ccccc12)NC(=O)[C@@H]1CCCN1C(=O)[C@@H]1CCCN1C(=O)[C@H](CCCCN)NC(=O)[C@H](CC(=O)O)NC(=O)[C@@H](N)C(C)C)C(=O)N[C@@H](Cc1ccc(O)cc1)C(=O)N[C@@H](CC(N)=O)C(=O)N[C@@H](CCCN=C(N)N)C(N)=O` [VDKPPWLPRPRPPRRIYNR] was 1.99 µM (≈ 4.8 µg/mL); that for `CC[C@H](C)[C@H](NC(=O)[C@H](CCCN=C(N)N)NC(=O)[C@H](CCCN=C(N)N)NC(=O)[C@@H]1CCCN1C(=O)[C@@H]1CCCN1C(=O)[C@H](CCCN=C(N)N)NC(=O)[C@@H]1CCCN1C(=O)[C@H](CCCN=C(N)N)NC(=O)[C@@H]1CCCN1C(=O)[C@H](CC(C)C)NC(=O)[C@H](Cc1ccc(O)cc1)NC(=O)[C@H](Cc1cnc[nH]1)NC(=O)[C@H](CCCCN)NC(=O)[C@H](CCCCN)NC(=O)[C@H](CC(=O)O)NC(=O)[C@@H](N)C(C)C)C(=O)N[C@@H](Cc1ccc(O)cc1)C(=O)N[C@@H](CC(N)=O)C(=O)N[C@@H](CCCN=C(N)N)C(N)=O` [VDKKHYLPRPRPPRRIYNR] was 0.975 µM (≈ 2.4 µg/mL).
For `CC(C)C[C@H](NC(=O)CNC(=O)[C@H](C)NC(=O)[C@H](CC(C)C)NC(=O)[C@H](CC(C)C)NC(=O)[C@H](CCCCN)NC(=O)[C@H](CC(C)C)NC(=O)[C@@H](N)Cc1ccccc1)C(=O)N[C@@H](CC(C)C)C(=O)N[C@@H](CCCCN)C(=O)N[C@@H](CC(N)=O)C(=O)N[C@@H](Cc1ccccc1)C(=O)N[C@@H](C)C(=O)O` [FLKLLAGLLKNFA], the MIC was > 69.1 µM in assay [2], ≥ 69.1 µM in [3] and ≥ 34.5 µM in [4].
Consider `CC[C@H](C)[C@H](NC(=O)CN)C(=O)N[C@H](C(=O)N[C@@H](C)C(=O)NCC(=O)N[C@H](C(=O)N[C@H](C(=O)N[C@@H](C)C(=O)N[C@@H](CCCCN)C(=O)N[C@H](C(=O)N[C@@H](CCCCN)C(=O)N[C@@H](CCCCN)C(N)=O)[C@@H](C)CC)[C@@H](C)CC)[C@@H](C)CC)[C@@H](C)CC` [GIIAGIIAKIKK], for which the figures for the MIC in [5] and in assay [6] were ≥ 32 µM and > 128 µM, respectively.
With `CC[C@H](C)[C@H](NC(=O)CN)C(=O)N[C@H](C(=O)N[C@@H](CCCN=C(N)N)C(=O)NCC(=O)N[C@H](C(=O)N[C@H](C(=O)N[C@@H](CCCCN)C(=O)N[C@H](C(=O)N[C@H](C(=O)N[C@@H](CCCCN)C(=O)N[C@@H](CCCN=C(N)N)C(N)=O)[C@@H](C)CC)[C@@H](C)CC)[C@@H](C)CC)[C@@H](C)CC)[C@@H](C)CC` [GIIRGIIKIIKR], the MIC in assay [5] amounted to 8 µM (≈ 11 µg/mL); in assay [6], 64 µM (≈ 88.2 µg/mL).
Turning to `CC[C@H](C)[C@H](NC(=O)[C@H](CCCN=C(N)N)NC(=O)[C@H](CCCN=C(N)N)NC(=O)[C@@H]1CCCN1C(=O)[C@@H]1CCCN1C(=O)[C@H](CCCN=C(N)N)NC(=O)[C@H](CCCN=C(N)N)NC(=O)[C@H](CCCN=C(N)N)NC(=O)[C@@H]1CCCN1C(=O)[C@H](CC(C)C)NC(=O)[C@H](Cc1ccc(O)cc1)NC(=O)[C@@H]1CCCN1C(=O)[C@H](CCCCN)NC(=O)[C@H](CCCCN)NC(=O)[C@H](CC(=O)O)NC(=O)[C@@H](N)C(C)C)C(=O)N[C@@H](Cc1ccc(O)cc1)C(=O)N[C@@H](CC(N)=O)C(=O)N[C@@H](CCCN=C(N)N)C(N)=O` [VDKKPYLPRRRPPRRIYNR], the MIC in assay [1] was found to be 0.685 µM (≈ 1.7 µg/mL).
On the same count and under the same terms, the value for `CC[C@H](C)[C@H](NC(=O)[C@H](CCCN=C(N)N)NC(=O)[C@H](CCCN=C(N)N)NC(=O)[C@@H]1CCCN1C(=O)[C@@H]1CCCN1C(=O)[C@H](CCCN=C(N)N)NC(=O)[C@@H]1CCCN1C(=O)[C@H](CCCN=C(N)N)NC(=O)[C@@H]1CCCN1C(=O)[C@H](CCCN=C(N)N)NC(=O)[C@H](CCCN=C(N)N)NC(=O)[C@@H]1CCCN1C(=O)[C@H](CCCCN)NC(=O)[C@H](CCCCN)NC(=O)[C@H](CC(=O)O)NC(=O)[C@@H](N)C(C)C)C(=O)N[C@@H](Cc1ccc(O)cc1)C(=O)N[C@@H](CC(N)=O)C(=O)N[C@@H](CCCN=C(N)N)C(N)=O` [VDKKPRRPRPRPPRRIYNR] was 1.34 µM (≈ 3.3 µg/mL).
As for `CC(C)C[C@H](NC(=O)[C@H](C)NC(=O)[C@H](Cc1c[nH]c2ccccc12)NC(=O)[C@H](CC(C)C)NC(=O)[C@@H](N)Cc1ccccc1)C(=O)N[C@@H](Cc1ccccc1)C(=O)N[C@@H](CCCCN)C(=O)N[C@H](C(=O)N[C@@H](C)C(=O)N[C@@H](CO)C(=O)N[C@@H](CCCCN)C(=O)O)C(C)C` [FLWALFKVASK], the MIC in assay [7] was ≥ 153 µM; in assay [8], 19.1 µM (≈ 25 µg/mL); in assay [9] it was ≥ 153 µM; in assay [10], > 153 µM; in [11] it was 9.54 µM (≈ 12.5 µg/mL); in assay [12] it was ≥ 38.2 µM. Besides, the MIC in assay [13] is ≥ 153 µM; in assay [14], 76.4 µM (≈ 100 µg/mL); in assay [15] it was 9.54 µM (≈ 12.5 µg/mL); in assay [16], 76.4 µM (≈ 100 µg/mL).
Take `CC[C@H](C)[C@H](NC(=O)[C@H](CC(N)=O)NC(=O)[C@H](Cc1ccccc1)NC(=O)[C@H](CC(C)C)NC(=O)CN)C(=O)N[C@H](C(=O)N[C@@H](CCCCN)C(=O)N[C@@H](CCCCN)C(=O)N[C@H](C(=O)N[C@H](C(=O)NCC(=O)N[C@@H](CCCCN)C(=O)N[C@@H](CC(C)C)C(=O)N[C@@H](CCCN=C(N)N)C(=O)O)[C@@H](C)CC)[C@@H](C)O)[C@@H](C)CC` [GLFNIIKKTIGKLR]: the MIC is 40 µM (≈ 64 µg/mL) in assay [6], 20 µM (≈ 32 µg/mL) in assay [17], 160 µM (≈ 256 µg/mL) in assay [18] and ≥ 40 µM in assay [19].
Regarding `CC(C)C[C@H](NC(=O)[C@H](C)NC(=O)CNC(=O)[C@H](CC(C)C)NC(=O)[C@@H](N)Cc1ccccc1)C(=O)N[C@@H](Cc1ccccc1)C(=O)N[C@@H](CCCCN)C(=O)N[C@H](C(=O)N[C@@H](C)C(=O)N[C@@H](CO)C(=O)N[C@@H](Cc1c[nH]c2ccccc12)C(=O)O)C(C)C` [FLGALFKVASW], the MIC in [7] is ≥ 161 µM; in assay [8], ≥ 161 µM; in [9], ≥ 161 µM; in [10] it was > 161 µM; in assay [11], > 161 µM; in assay [12], ≥ 161 µM. Further, the MIC in assay [13] was ≥ 161 µM; in [14], > 161 µM; in assay [15] it was ≥ 161 µM; in assay [16], > 161 µM.
In the case of `CC[C@H](C)[C@H](NC(=O)[C@H](CCCN=C(N)N)NC(=O)[C@H](CCCN=C(N)N)NC(=O)[C@@H]1CCCN1C(=O)[C@@H]1CCCN1C(=O)[C@H](CCCN=C(N)N)NC(=O)[C@@H]1CCCN1C(=O)[C@H](CCCN=C(N)N)NC(=O)[C@@H]1CCCN1C(=O)[C@H](CCCCN)NC(=O)[C@H](CCCN=C(N)N)NC(=O)[C@@H]1CCCN1C(=O)[C@H](CCCCN)NC(=O)[C@H](CCCCN)NC(=O)[C@H](CC(=O)O)NC(=O)[C@@H](N)C(C)C)C(=O)N[C@@H](Cc1ccc(O)cc1)C(=O)N[C@@H](CC(N)=O)C(=O)N[C@@H](CCCN=C(N)N)C(N)=O` [VDKKPRKPRPRPPRRIYNR], in assay [1], the MIC worked out at 1.36 µM (≈ 3.3 µg/mL).
For the molecule `CC[C@H](C)[C@H](NC(=O)[C@H](CCCCN)NC(=O)[C@H](CCCCN)NC(=O)[C@H](C)NC(=O)[C@@H](NC(=O)[C@H](C)NC(=O)[C@H](CC(C)C)NC(=O)[C@H](CC(C)C)NC(=O)[C@H](CCCCN)NC(=O)[C@H](CCCCN)NC(=O)[C@H](CC(C)C)NC(=O)[C@H](CC(N)=O)NC(=O)CN)C(C)C)C(=O)N[C@@H](CC(C)C)C(N)=O` [GNLKKLLAVAKKIL], the MIC in assay [5] amounted to 4 µM (≈ 6.03 µg/mL); in assay [14], 4 µM (≈ 6.03 µg/mL); in [20], 16 µM (≈ 24.1 µg/mL); in assay [18], 16 µM (≈ 24.1 µg/mL).
